Data from PMC7822874, “Chemoprotective antimalarials identified through quantitative high-throughput screening of Plasmodium blood and liver stage parasites” (Scientific Reports, 2021).
Read-outs that look alike come from different tables or passages of the source.

Experiments:
[1] = system: Plasmodium falciparum Dd2 asexual blood stage parasites; experiment: microbe, parasite or virus in culture; design: species or system Plasmodium falciparum Dd2 in human erythrocytes; single determination (one 11-point concentration-response curve); conditions: Plasmodium falciparum, DD2, Erythrocyte, 72 h; read-out: AC50
in vitro [2] = conditions: human
HepG2 = conditions: human, hepg2 cells, 48 h
in vitro [3] = conditions: human, hepg2 cells
[4] = system: P. berghei-ANKA-GFP-LucCON liver stage parasites in HepG2-A16-CD81EGFP cells; experiment: P. berghei liver stage Pb-Luc assay, Method 1 (UCSD, 1536-well); format: cell-based, Plasmodium berghei; conditions: Method 1; for Max Resp (signal direction of the dose response): Decrease = decreasing P. berghei viability with dose, Increase = increasing signal, Inactive = no dose response
[5] = HepG2-A16-CD81EGFP cells, uninfected
[6] = Plasmodium berghei, Hill fit, 50% of maximum activity response, read-out: AC50
[7] = Plasmodium berghei, log10 of molar AC50 from Hill fit, read-out: Log AC50 (converted)

SMILES	Log AC50 (M) (HepG2)	AC50 [1] [µM]	CC50 at 48 h (in vitro [3]) [µM]	viability at 48 h, 1 µM (in vitro [2]; [5]) [%]	viability at 48 h, 3 µM (in vitro [2]; [5]) [%]	also measured
Cc1cnc(C(=O)Nc2cccc3cccnc23)cn1 [MLS000033120-01]	-6.2143	2.66	0.611			viability at 66 h (in vitro [2]; [5]): 105%
c1ccc(-c2nc(N3CCCCCC3)c3ccccc3n2)nc1 [MLS000042263-01]	-5.5643	1.68	2.73	102	88	
N=c1ccn(Cc2ccc(Cl)cc2)cc1 [MLS000080110-01]	-4.4643	8.41	34.3			viability at 66 h (in vitro [2]; [5]): 101%
CCN1CC=C(c2c[nH]c3ccccc23)CC1 [MLS000093713-01]	-4.6143	4.22	24.3			viability at 66 h (in vitro [2]): 103%
CCc1ccc(Nc2cc(=O)n(C3CCCCC3)c(=O)[nH]2)cc1 [MLS000094379-01]	-4.3643		43.2			viability at 66 h (in vitro [2]; [5]): 104%
Cc1cc(O)c(-c2cc(C(=O)Nc3sc4c(c3C(=O)NCc3ccco3)CCC4)[nH]n2)cc1C [MLS000331999-01]	-4.4643		34.3			Max Resp (signal direction of the dose response) [4]: Inactive; viability at 66 h (in vitro [2]; [5]): 106%
Cc1nc2c(=O)n(C)c(=O)nc-2n(C)n1 [MLS000528498-01]	-6.0643	0.422	0.862			Max Resp (signal direction of the dose response) [4]: Decrease; AC50 [4, 6]: 0.056 µM; AC50 [4, 7]: 0.0562 µM
CCNc1nc(NC(C)(C)C)nc(N2CCCC2)n1 [MLS000528993-01]	-4.3643	2.37	43.2			viability at 66 h (in vitro [2]; [5]): 99.9%
CC(=O)Nc1ccc(NC2=Nc3ccccc3N3C2=Nc2c(c(C)nn2-c2ccccc2)C3c2ccccc2)cc1 (centres unmarked) [MLS000555438-01]	-4.3143	6.68	48.5			viability at 66 h (in vitro [2]; [5]): 95.3%
O=C(NC(c1ccc(Cl)cc1)c1cc(Cl)c2cccnc2c1O)c1cccnc1 (centres unmarked) [MLS000573463-01]	-4.3643	5.96	43.2	84	68	
CN1C2CCC1/C(=C/c1ccccn1)C(=O)/C2=C\c1ccccn1 [MLS000702810-01]	-4.8143		15.3			Max Resp (signal direction of the dose response) [4]: Decrease; AC50 [4, 6]: 0.794 µM; AC50 [4, 7]: 0.794 µM; viability at 48 h (in vitro [2]): 76.4%; viability at 48 h, 1 µM (in vitro [2]): 76.4%
c1ccc2cc3c(NCCN4CCOCC4)ccnc3cc2c1 [MLS000702892-01]	-4.3643	1.68	43.2	89	92	
CCOc1ccc(Nc2nc(NCC3CCCO3)c3ccccc3n2)cc1 (centres unmarked) [MLS000724397-01]	-4.3643	1.88	43.2	104	83	
CC1(C)N=C(N)N=C(N)N1c1ccc(OCCCOc2ccccc2)c(Cl)c1 [MLS000738223-01]	-5.1143	2.99	7.69	39	32	
OC(c1cc(-c2ccc(C(F)(F)F)cc2)nc(C(F)(F)F)c1)C1CCCCN1 (centres unmarked) [MLS000757046-01]	-4.3643	0.15	43.2	109	105	
Cc1c2ccncc2c(C)c2c1[nH]c1ccccc12 [MLS001076505-01]	-4.3643	3.35	43.2			viability (in vitro [2]): 102%
COc1cc(OC)c(NC2=CC(=O)C(=O)c3ccccc32)cc1Cl [MLS001198657-01]	-4.3643	2.99	43.2	93	59	
CN1CCC(NCCC(c2ccc(F)cc2)c2ccc(Cl)cc2)CC1 (centres unmarked) [MLS001215866-01]	-4.4643	4.22	34.3			viability at 66 h (in vitro [2]; [5]): 98.6%
C/C(=N\NC(=O)c1cccc(Br)c1)c1ccccn1 [MLS001232242-01]	-5.8643	4.73	1.37			Max Resp (signal direction of the dose response) [4]: Decrease; AC50 ([4]; Hill fit, 50% of maximum activity response, read-out: AC50): 0.891 µM; Log AC50 (M) ([4]; log10 of molar AC50 from Hill fit): -6.050 M; AC50 [4, 6]: 0.794 µM; AC50 [4, 7]: 0.794 µM
CCCN(CCC)CCNC(=O)c1cc2c(-c3ccc(Cl)cc3)nn(C)c2s1 [NCGC00108997-01]	-4.3643	0.596	43.2	102	98	
CCc1ccc([S+](=O)([O-])c2nnn3c2nc(Nc2ccc(F)cc2)c2cc(Cl)ccc23)cc1 [NCGC00112284-01]	-4.4643	2.11	34.3			viability at 66 h (in vitro [2]; [5]): 105%
Cc1noc(C)c1Cc1ccc(C(=O)N2[C@H]3CC[C@@H]2c2cnc(-c4ccccc4)nc2C3)o1 [NCGC00458744-01]	-4.5643	9.44	27.3			

Now from value to compound, other results behind:

Log AC50 (M) (HepG2)	SMILES	AC50 [1] [µM]	CC50 at 48 h (in vitro [3]) [µM]	viability at 48 h, 1 µM (in vitro [2]; [5]) [%]	viability at 48 h, 3 µM (in vitro [2]; [5]) [%]	also measured
-4.9143	Cc1cccc(Oc2nc(-c3ccccn3)nc3ccccc23)c1 [MLS000769548-01]	7.5	12.2	106		viability at 48 h (in vitro [2]; [5]): 106%
-4.4643	CCN1CCN(Cc2ccc(NC(=O)c3ccc(C)c(NC(=O)c4cnc5cc(C(F)(F)F)ccc5c4O)c3)cc2C(F)(F)F)CC1 [MLS000911561-01]	0.531	34.3	107	104	
-4.3643	c1ccc(-[n+]2nc(Nc3cccc4ccccc34)sc2-c2c3ccccc3cc3ccccc23)cc1 [MLS000949879-01]	5.96	43.2			viability at 66 h (in vitro [2]; [5]): 95.1%
-4.3643	CCOC(=O)c1sc(NC(=O)CNCc2ccccn2)c(C(=O)OCC)c1C [MLS001005083-01]		43.2	101	96	
-4.5143	CCN(CC)CCn1c(=N)n(CC(=O)c2ccc(Br)s2)c2ccccc21 [MLS001045932-01]	5.31	30.6	91	91	
-4.4643	CN(C)CC(CCC(CN(C)C)C(O)(c1ccccc1)c1ccccc1)C(O)(c1ccccc1)c1ccccc1 (centres unmarked) [MLS001173677-01]	2.11	34.3	101	98	
-4.7643	O=C(Nc1nc(-c2ccccn2)cs1)Nc1ccc(F)cc1F [MLS001175659-01]	5.31	17.2	94	79	
-4.6143	CN1CCN(c2ccc(Nc3ccnc4cc(Cl)ccc34)cc2)CC1 [MLS001203414-01]	0.188	24.3	86	90	
-4.8643	CCn1c(/C=C/c2cc(Br)ccc2O)nc2ccccc2c1=O [MLS001205008-01]	4.22	13.7	104	101	
-4.5143	COc1ccc(/C=N/Nc2cc(C)nc3ccccc23)cc1 [MLS001210939-01]	2.11	30.6	92	87	
-4.4643	COc1ccc(C2c3ccc4ccccc4c3Oc3ncn(CCCN(C)C)c(=N)c32)cc1 (centres unmarked) [MLS001216280-01]	2.99	34.3	109	103	
-4.3643	COc1cc2nc(Nc3ccc(C)c(C)c3)nc(N)c2cc1OC [NCGC00107261-01]	0.75	43.2	107	97	
-4.4643	CC1=C[C@@H](CNCc2cccnc2)[C@H](C(C)C)C[C@H]1Cc1nnc(-c2ccc(N(C)C)cc2)o1 [NCGC00421481-01]	5.31	34.3			
-4.3643	CCCC1=Nc2cc(C(=O)NCCCN3CCCCC3CC)ccc2Sc2ccc(C)cc21 (centres unmarked) [NCGC00424661-01]	9.44	43.2			
-4.4143	Cc1cccc(CN2CCCC(O)(CNCc3ncccc3C)C2=O)c1 (centres unmarked) [NCGC00429062-01]	16.8	38.5			
-4.4643	CCN1C(=O)C2(CCN([S+](=O)([O-])c3ccc(Cl)cc3C)CC2)c2ccccc21 [NCGC00435870-01]	5.31	34.3			
-4.5643	CC(C)c1nc(-c2ccc(OC3CCN(C(=O)CCc4nc5ccccc5[nH]4)C3)cc2)no1 (centres unmarked) [NCGC00441007-01]	15	27.3			
-4.8143	CCOC(=O)CCCOc1cccn2c(=O)c(-c3cc(C)n(-c4ccc(Cl)cc4)n3)c(C)nc12 [NCGC00473250-01]	10.6	15.3			
